Among the data in patent US9951065B2 (Gilead Sciences, Inc., priority 2015, dated 2018) are EC50 values, retold here.

For the assay, the target named is T1, IDO1 (Homo sapiens, UniProt P14902).
T1 construct: HeLa cells were treated with a test compound in the presence of IFNγ, which induces IDO1 expression; host or cells: H1-HeLa cells, IDO1 induced with IFNγ
T1 sequence (P14902 whole entry): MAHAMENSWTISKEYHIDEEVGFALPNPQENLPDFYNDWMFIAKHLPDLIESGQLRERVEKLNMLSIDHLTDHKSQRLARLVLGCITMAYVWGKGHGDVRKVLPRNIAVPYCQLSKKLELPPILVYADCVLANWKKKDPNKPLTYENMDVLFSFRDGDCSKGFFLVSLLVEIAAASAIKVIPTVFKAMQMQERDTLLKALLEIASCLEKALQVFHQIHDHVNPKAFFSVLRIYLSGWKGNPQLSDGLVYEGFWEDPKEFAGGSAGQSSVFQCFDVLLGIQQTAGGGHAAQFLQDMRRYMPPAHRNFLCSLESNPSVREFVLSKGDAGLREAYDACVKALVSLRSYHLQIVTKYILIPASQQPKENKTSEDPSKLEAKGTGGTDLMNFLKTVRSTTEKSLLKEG
The assay is described as follows: Cell-based (HeLa) assay for measurement of IDO1 inhibition (kynurenine levels in supernatant after IFNγ induction). The note with it: HeLa cells, IFNγ-induced IDO1, kynurenine in supernatant after 48 hour incubation; geometric mean of a minimum of four determinations. The procedure:
Example 509. Cell-Based (HeLa) Assay for Measurement of IDOL Inhibition
To measure IDO1 inhibition in tissue culture, HeLa cells were treated with a test compound in the presence of IFNγ, which induces IDO1 expression. Following incubation, cell supernatants were assayed for kynurenine levels, an indicator of IDO1 activity.
H1-HeLa cells (ATCC #CRL-1958) were seeded in 384-well plates (Greiner #82051-282) at a volume of 50 μL/well in DMEM (Corning #15-018-CM) supplemented with 10% FBS (Corning #35-011-CV) and 1% P/S/G (Corning #30-009-CL) at a density of 1,250 cells/well and incubated overnight at 37° C., 5% CO2/100% humidity. The following day, the test compounds were added in DMSO (0.5% final) at various concentrations, and IDO1 was inducibly expressed by the addition of 50 uL/well of […] of INFγ (Peprotech #300-02) in cell plating media. As a […] control, 50 uL of the cell plating media without IFNγ was added to several wells. Following a 48 hour incubation, the plates were spun down at 1,200 RPM for 5 min at 10° C. 65 μL/well of the supernatant was then transferred to new 384-well plates (Thermo #262160) that contained 10 uL/well of 30% TCA (Sigma #TO699), and the plates were sealed and incubated at 60° C. for 30 min. The plates were then centrifuged for 15 min at 2,000 RPM at 10° C. 40 μL/well of the supernatant was transferred to new 384-well plates (Thermo #262160) and was reacted with 40 μL/well of 2% (w/v) p-dimethlyaminobenzaldehyde (Sigma #156417) in glacial acetic acid (Sigma #A6283). The reaction was incubated at room temperature for 10 min and absorbance at 480 nm was read using a PerkinElmer Envision plate reader.
Data in Table 1 were normalized based on positive (−IFNγ) and negative (+IFNγ) controls and EC50 values were calculated from the fit of the dose response curves to a four-parameter equation. All EC50 values represent geometric mean values of a minimum of four determinations. These assays generally produced results within 2-fold of the reported mean.
For orientation: EC50 means the concentration needed to bring the measured effect to its halfway point. A high value points to a need for much substance. Take `O/N=C(\Nc1ccc(F)c(Cl)c1)c1ccnc2nc[nH]c12` [Example 59, N-(3-Chloro-4-fluorophenyl)-N′-hydroxy-1H-imidazo[4,5-b]pyridine-7-carboximidamide]: the EC50 was 208 nM. This lies in the sub-micromolar range.

In turn, `O/N=C(\Nc1cc(Cl)ccc1F)c1ccnc2nc[nH]c12` [Example 60, N-(5-Chloro-2-fluorophenyl)-N′-hydroxy-1H-imidazo[4,5-b]pyridine-7-carboximidamide] registered an EC50 of 322 nM.

Molecule `O/N=C(\Nc1cc(Br)c(F)cc1F)c1ccnc2nc[nH]c12` [Example 61, N-(5-Bromo-2,4-difluorophenyl)-N′-hydroxy-1H-imidazo[4,5-b]pyridine-7-carboximidamide] showed an EC50 of 371 nM.

In turn, `O/N=C(\Nc1cc(Cl)c(F)cc1F)c1ccnc2nc[nH]c12` [Example 62, N-(5-Chloro-2,4-difluorophenyl)-N′-hydroxy-1H-imidazo[4,5-b]pyridine-7-carboximidamide] yielded an EC50 of 385 nM.

In turn, `O/N=C(\Nc1cc(Cl)c(F)c(Cl)c1)c1ccnc2nc[nH]c12` [Example 63, N-(3,5-Dichloro-4-fluorophenyl)-N′-hydroxy-1H-imidazo[4,5-b]pyridine-7-carboximidamide] returned an EC50 of 774 nM. This EC50 is about 2-fold higher than that of the molecule before.

Molecule `O/N=C(\Nc1ccc(F)c(Cl)c1F)c1ccnc2nc[nH]c12` [Example 64, N-(3-Chloro-2,4-difluorophenyl)-N′-hydroxy-1H-imidazo[4,5-b]pyridine-7-carboximidamide] showed an EC50 of 813 nM.

`O/N=C(\Nc1ccc(F)c(C2CC2)c1)c1ccnc2nc[nH]c12` [Example 65, N-(3-Cyclopropyl-4-fluorophenyl)-N′-hydroxy-1H-imidazo[4,5-b]pyridine-7-carboximidamide] showed an EC50 of 1810 nM. Against the preceding molecule, the EC50 is about 2.2-fold higher.

Molecule `O/N=C(\Nc1ccc(OC(F)(F)F)cc1)c1ccnc2nc[nH]c12` [Example 66, N′-Hydroxy-N-(4-(trifluoromethoxy)phenyl)-1H-imidazo[4,5-b]pyridine-7-carboximidamide] yielded an EC50 of 4870 nM.

On to `O/N=C(\Nc1cccc2occc12)c1ccnc2nc[nH]c12` [Example 67, N-(Benzofuran-4-yl)-N′-hydroxy-1H-imidazo[4,5-b]pyridine-7-carboximidamide], for which the midpoint of the response, the EC50, lay at 583 nM.

`O/N=C(\Nc1ccc2ccoc2c1)c1ccnc2nc[nH]c12` [Example 68, N-(Benzofuran-6-yl)-N′-hydroxy-1H-imidazo[4,5-b]pyridine-7-carboximidamide]: the midpoint of the response, the EC50, lay at 890 nM. This EC50 lies about 1.5-fold higher than the previous one.

With `O/N=C(\Nc1cccc2ccoc12)c1ccnc2nc[nH]c12` [Example 69, N-(Benzofuran-7-yl)-N′-hydroxy-1H-imidazo[4,5-b]pyridine-7-carboximidamide], the midpoint of the response, the EC50, lay at 1340 nM.

Turning to `O/N=C(\Nc1ccc2occc2c1)c1ccnc2nc[nH]c12` [Example 70, N-(benzofuran-5-yl)-N′-hydroxy-1H-imidazo[4,5-b]pyridine-7-carboximidamide], it took 1480 nM to reach a half-maximal effect (EC50). This EC50 and that of the molecule before are within 1.5-fold of each other.

As for `O/N=C(\Nc1cc(Br)ccc1F)c1ccnc2nc[nH]c12` [Example 71, N-(5-Bromo-2-fluorophenyl)-N′-hydroxy-1H-imidazo[4,5-b]pyridine-7-carboximidamide], a half-maximal response (EC50) required 207 nM.

`O/N=C(\Nc1cc(F)cc(Br)c1)c1ccnc2nc[nH]c12` [Example 72, N-(3-Bromo-5-fluorophenyl)-N′-hydroxy-1H-imidazo[4,5-b]pyridine-7-carboximidamide] displayed an EC50 of 280 nM.

In the case of `O/N=C(\Nc1cccc(C(F)(F)F)c1)c1ccnc2nc[nH]c12` [Example 73, N′-Hydroxy-N-(3-(trifluoromethyl)phenyl)-1H-imidazo[4,5-b]pyridine-7-carboximidamide], the EC50 was found to be 373 nM.

With `O/N=C(\Nc1ccc2c(c1)OC(F)(F)O2)c1ccnc2nc[nH]c12` [Example 74, N-(2,2-Difluorobenzo[d][1,3]dioxol-5-yl)-N′-hydroxy-1H-imidazo[4,5-b]pyridine-7-carboximidamide], the EC50 turned out to be 923 nM.

Take `O/N=C(\Nc1cc(F)cc(C(F)(F)F)c1)c1ccnc2nc[nH]c12` [Example 75, N-(3-Fluoro-5-(trifluoromethyl)phenyl)-N′-hydroxy-1H-imidazo[4,5-b]pyridine-7-carboximidamide]: the EC50 came to 2110 nM.

Turning to `O/N=C(\Nc1cc(Cl)ccc1Cl)c1ccnc2nc[nH]c12` [Example 76, N-(2,5-Dichlorophenyl)-N′-hydroxy-1H-imidazo[4,5-b]pyridine-7-carboximidamide], the response was half-maximal at 769 nM (EC50).

Molecule `O/N=C(\Nc1ccc(F)c(-c2ccccc2)c1)c1ccnc2nc[nH]c12` [Example 77, N-(6-Fluoro-[1,1′-biphenyl]-3-yl)-N′-hydroxy-1H-imidazo[4,5-b]pyridine-7-carboximidamide] came in with an EC50 of 2290 nM.

`CCC#Cc1cc(N/C(=N\O)c2ccnc3nc[nH]c23)ccc1F` [Example 78, N-(3-(But-1-yn-1-yl)-4-fluorophenyl)-N′-hydroxy-1H-imidazo[4,5-b]pyridine-7-carboximidamide] displayed an EC50 of 2640 nM. The EC50 values of the last two molecules are within 1.5-fold of each other.

With `O/N=C(\Nc1ccc(F)c(C#CC2CC2)c1)c1ccnc2nc[nH]c12` [Example 79, N-(3-(Cyclopropylethynyl)-4-fluorophenyl)-N′-hydroxy-1H-imidazo[4,5-b]pyridine-7-carboximidamide], the EC50 was 3220 nM.

Turning to `O/N=C(\Nc1cccc(Br)c1)c1ccnc2nc[nH]c12` [Example 80, N-(3-Bromophenyl)-N′-hydroxy-1H-imidazo[4,5-b]pyridine-7-carboximidamide], the EC50 is 111 nM.

As for `O/N=C(\Nc1ccc(F)c(Br)c1)c1ccnc2nc[nH]c12` [Example 81, N-(3-Bromo-4-fluorophenyl)-N′-hydroxy-1H-imidazo[4,5-b]pyridine-7-carboximidamide], the EC50 stood at 140 nM.

Turning to `O/N=C(\Nc1cccc(Cl)c1)c1ccnc2nc[nH]c12` [Example 82, N-(3-Chlorophenyl)-N′-hydroxy-1H-imidazo[4,5-b]pyridine-7-carboximidamide], the EC50 came to 160 nM.

As for `O/N=C(\Nc1ccc(F)c(C(F)(F)F)c1)c1ccnc2nc[nH]c12` [Example 83, N-(4-Fluoro-3-(trifluoromethyl)phenyl)-N′-hydroxy-1H-imidazo[4,5-b]pyridine-7-carboximidamide], the concentration giving a half-maximal response (EC50) is 315 nM.

Molecule `CC#Cc1cc(N/C(=N\O)c2ccnc3nc[nH]c23)ccc1F` [Example 84, N-(4-Fluoro-3-(prop-1-yn-1-yl)phenyl)-N′-hydroxy-1H-imidazo[4,5-b]pyridine-7-carboximidamide] gave an EC50 of 445 nM.

Turning to `O/N=C(\Nc1ccc(Cl)c(Br)c1)c1ccnc2nc[nH]c12` [Example 85, N-(3-Bromo-4-chlorophenyl)-N′-hydroxy-1H-imidazo[4,5-b]pyridine-7-carboximidamide], a half-maximal effect (EC50) was put at 462 nM. The EC50 values of the last two molecules are within 1.5-fold of each other.

In turn, `O/N=C(\Nc1ccc(Cl)c(Cl)c1)c1ccnc2nc[nH]c12` [Example 86, N-(3,4-Dichlorophenyl)-N′-hydroxy-1H-imidazo[4,5-b]pyridine-7-carboximidamide] registered an EC50 of 639 nM.

`O/N=C(\Nc1ccc(Cl)cc1)c1ccnc2nc[nH]c12` [Example 87, N-(4-Chlorophenyl)-N′-hydroxy-1H-imidazo[4,5-b]pyridine-7-carboximidamide]: the EC50 amounted to 846 nM.

`O/N=C(\Nc1ccc(Br)cc1)c1ccnc2nc[nH]c12` [Example 88, N-(4-Bromophenyl)-N′-hydroxy-1H-imidazo[4,5-b]pyridine-7-carboximidamide] registered an EC50 of 916 nM.

For the molecule `O/N=C(\Nc1ccc(F)cc1)c1ccnc2nc[nH]c12` [Example 89, N-(4-Fluorophenyl)-N′-hydroxy-1H-imidazo[4,5-b]pyridine-7-carboximidamide], it took 943 nM to reach a half-maximal effect (EC50).

Take `N#Cc1cc(N/C(=N\O)c2ccnc3nc[nH]c23)ccc1F` [Example 90, N-(3-Cyano-4-fluorophenyl)-N′-hydroxy-1H-imidazo[4,5-b]pyridine-7-carboximidamide]: the EC50 came out at 1050 nM.

Turning to `O/N=C(\Nc1ccc(C(F)(F)F)cc1)c1ccnc2nc[nH]c12` [Example 91, N′-Hydroxy-N-(4-(trifluoromethyl)phenyl)-1H-imidazo[4,5-b]pyridine-7-carboximidamide], the EC50 was determined as 2240 nM.

`COc1cccc(N/C(=N\O)c2ccnc3nc[nH]c23)c1` [Example 92, N′-Hydroxy-N-(3-methoxyphenyl)-1H-imidazo[4,5-b]pyridine-7-carboximidamide] came in with an EC50 of 3890 nM. Compared with the last molecule, the EC50 is about 1.7-fold higher.

On to `CC(C)c1cc(N/C(=N\O)c2ccnc3nc[nH]c23)ccc1F` [Example 93, N-(4-Fluoro-3-isopropylphenyl)-N′-hydroxy-1H-imidazo[4,5-b]pyridine-7-carboximidamide], for which a half-maximal response (EC50) required 5100 nM.
